Measurements from PubChem BioAssay (NCI).
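48-hour exposure; five concentrations; linearly interpolated endpoints. The concentration for 50% growth inhibition is given as GI50. TGI is the concentration that stops growth completely.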

Assays:
Experiment in all cases: NCI tumour cell line growth inhibition, 48 h
[1] = system: RPMI-8226 leukemia
[2] = system: SF-268 CNS
[3] = system: SN12C renal
[4] = system: CCRF-CEM leukemia
[5] = system: HS 578T breast
[6] = system: NCI/ADR-RES ovarian
[7] = system: DU-145 prostate
[8] = system: M14 melanoma
[9] = system: U251 CNS
[10] = system: HCT-15 colon
[11] = system: 786-0 renal
[12] = system: HCC-2998 colon
[13] = system: LOX IMVI melanoma
[14] = system: SK-MEL-28 melanoma
[15] = system: TK-10 renal
[16] = system: PC-3 prostate
[17] = system: KM12 colon
[18] = system: NCI-H522 lung
[19] = system: HL-60(TB) leukemia
[20] = system: BT-549 breast
[21] = system: SW-620 colon
[22] = system: SK-MEL-2 melanoma
[23] = system: HT29 colon
[24] = system: SF-539 CNS
[25] = system: MCF7 breast
[26] = system: MDA-MB-435
[27] = system: A549 NSCLC
[28] = system: OVCAR-5 ovarian
[29] = system: EKVX NSCLC
[30] = system: NCI-H23 lung
[31] = system: MOLT-4 leukemia
[32] = system: OVCAR-3 ovarian
[33] = system: HOP-62 NSCLC
[34] = system: NCI-H226 lung
[35] = system: UO-31 renal
[36] = system: T-47D breast
[37] = system: SK-OV-3 ovarian
[38] = system: ACHN renal
[39] = system: SR leukemia
[40] = system: NCI-H460 lung
[41] = system: SNB-19 CNS
[42] = system: SK-MEL-5 melanoma
[43] = system: RXF 393 renal
[44] = system: OVCAR-4 ovarian
[45] = system: MALME-3M melanoma
[46] = system: SF-295 CNS
[47] = system: OVCAR-8 ovarian
[48] = system: UACC-62 melanoma
[49] = system: CAKI-1 renal
[50] = system: COLO 205 colon
[51] = system: MDA-MB-231 breast
[52] = system: IGROV1 ovarian
[53] = system: HOP-92 NSCLC
[54] = system: UACC-257 melanoma
[55] = system: K-562 leukemia
[56] = system: SNB-75 CNS

CN(C)CCCn1c2c(c3ccc(N4CCNCC4)cc3c1=O)C(=O)c1ccccc1-2
GI50 [1]: 271 nM | TGI [1]: 978 nM | GI50 [2]: 950 nM | TGI [2]: 2720 nM | GI50 [3]: 329 nM | TGI [3]: 1790 nM | GI50 [4]: 335 nM | TGI [4]: 1940 nM | GI50 [5]: 1440 nM | TGI [5]: 4380 nM | GI50 [6]: 1160 nM | TGI [6]: 2830 nM | GI50 [7]: 329 nM | TGI [7]: 1650 nM | GI50 [8]: 1050 nM | TGI [8]: 2390 nM | GI50 [9]: 639 nM | TGI [9]: 2310 nM | GI50 [10]: 728 nM | TGI [10]: 3040 nM | GI50 [11]: 1340 nM | TGI [11]: 2730 nM | GI50 [12]: 352 nM | TGI [12]: 1710 nM | GI50 [13]: 145 nM | TGI [13]: 481 nM | GI50 [14]: 1530 nM | TGI [14]: 3330 nM | GI50 [15]: 1330 nM | TGI [15]: 4410 nM | GI50 [16]: 863 nM | TGI [16]: 3790 nM | GI50 [17]: 1130 nM | TGI [17]: 3070 nM | GI50 [18]: 960 nM | TGI [18]: 2550 nM | GI50 [19]: 1170 nM | TGI [19]: 3050 nM | GI50 [20]: 1270 nM | TGI [20]: 2770 nM | GI50 [21]: 164 nM | TGI [21]: 1610 nM | GI50 [22]: 1710 nM | TGI [22]: 3380 nM | GI50 [23]: 351 nM | TGI [23]: 1900 nM | GI50 [24]: 1610 nM | TGI [24]: 3160 nM | GI50 [25]: 296 nM | TGI [25]: 1780 nM | GI50 [26]: 1200 nM | TGI [26]: 2670 nM | GI50 [27]: 224 nM | TGI [27]: 2230 nM | GI50 [28]: 2120 nM | TGI [28]: 5570 nM | GI50 [29]: 1180 nM | TGI [29]: 2930 nM | GI50 [30]: 1050 nM | TGI [30]: 2640 nM | GI50 [31]: 97.9 nM | TGI [31]: 922 nM | GI50 [32]: 1050 nM | TGI [32]: 3070 nM | GI50 [33]: 1060 nM | TGI [33]: 2640 nM | GI50 [34]: 564 nM | TGI [34]: 2900 nM | GI50 [35]: 765 nM | TGI [35]: 2560 nM | GI50 [36]: 1550 nM | TGI [36]: 4420 nM | GI50 [37]: 1050 nM | TGI [37]: 3510 nM | GI50 [38]: 392 nM | TGI [38]: 2630 nM | GI50 [39]: 307 nM | TGI [39]: 1690 nM | GI50 [40]: 307 nM | TGI [40]: 1560 nM | GI50 [41]: 541 nM | TGI [41]: 3230 nM | GI50 [42]: 698 nM | TGI [42]: 2200 nM | GI50 [43]: 1290 nM | TGI [43]: 2900 nM | GI50 [44]: 343 nM | TGI [44]: 1880 nM | GI50 [45]: 1420 nM | TGI [45]: 3460 nM | GI50 [46]: 1160 nM | TGI [46]: 3360 nM | GI50 [47]: 403 nM | TGI [47]: 1990 nM | GI50 [48]: 1030 nM | TGI [48]: 2520 nM | GI50 [49]: 1050 nM | TGI [49]: 4520 nM | GI50 [50]: 624 nM | TGI [50]: 2280 nM | GI50 [51]: 505 nM | TGI [51]: 2050 nM | GI50 [52]: 844 nM | TGI [52]: 3730 nM | GI50 [53]: 1720 nM | TGI [53]: 6530 nM | GI50 [54]: 1690 nM | TGI [54]: 3740 nM | GI50 [55]: 833 nM | TGI [55]: 2550 nM | GI50 [56]: 947 nM | TGI [56]: 2550 nM
